# Measured values published in patent US20230190717A1, “P38 GAMMA INHIBITORS AND METHOD OF USE THEREOF” (City of Hope, priority 2017, published 2023).
# Legend:
# Type in all cases: cell-based, human
# SK-MEL-5 = assay: NCI-60 cytotoxicity, SK-MEL-5; conditions: SK-MEL-5 (Melanoma), 72 h
# Protocol: (§1) Briefly, human NCI-60 cancer cell lines were counted with a Vi-CELL Cell Viability Analyzer (Beckman Coulter), resuspended in RPMI-1640 medium containing 10% FBS and 1% penicillin/streptomycin and dispensed in wells of 96-well microplates (3000 cells per well for solid tumor and 5000 per well for blood tumor cells) using an epMotion 5075 liquid handler (Eppendorf) under a sterile condition, followed by incubation overnight at 37° C. in 5% (v/v) CO2. Cells were exposed to compounds in a dose-dependent manner for 72 h. An MTS dye (20 uL per well) was added to each well. Cell viability was determined by tetrazolium conversion to its […] dye. […] Each experiment was performed in duplicate. […] H9 cells are more sensitive to drugs, therefore instead of 72 hours, we choose 48 hour the incubation time for H9 cells.
# (§2) IC50 values were determined using […] software (Biosoft).
# CAKI-1 = assay: NCI-60 cytotoxicity, CAKI-1; conditions: CAKI-1 (Renal), 72 h
# Protocol: as §1, §2
# A498 = assay: NCI-60 cytotoxicity, A498; conditions: A498 (Renal), 72 h
# Protocol: as §1, §2
# NCI-H23 = assay: NCI-60 cytotoxicity, NCI-H23; conditions: NCI-H23 (Lung), 72 h
# Protocol: as §1, §2
# MDA-MB-231 = assay: NCI-60 cytotoxicity, MDA-MB-231; conditions: MDA-MB-231 (Breast), 72 h
# Protocol: as §1, §2
# SNB-19 = assay: NCI-60 cytotoxicity, SNB-19; conditions: SNB-19 (CNS), 72 h
# Protocol: as §1, §2
# LOX IMVI = assay: NCI-60 cytotoxicity, LOX IMVI; conditions: LOX IMVI (Melanoma), 72 h
# Protocol: as §1, §2
# SNB-75 = assay: NCI-60 cytotoxicity, SNB-75; conditions: SNB-75 (CNS), 72 h
# Protocol: as §1, §2
# KM12 = assay: NCI-60 cytotoxicity, KM12; conditions: KM12 (Colon), 72 h
# Protocol: as §1, §2
# Colo 205 = assay: NCI-60 cytotoxicity, Colo 205; conditions: Colo 205 (Colon), 72 h
# Protocol: as §1, §2
# 786-0 = assay: NCI-60 cytotoxicity, 786-0; conditions: 786-0 (Renal), 72 h
# Protocol: as §1, §2
# UO31 = assay: NCI-60 cytotoxicity, UO31; conditions: UO31 (Renal), 72 h
# Protocol: as §1, §2
# SW-620 = assay: NCI-60 cytotoxicity, SW-620; conditions: SW-620 (Colon), 72 h
# Protocol: as §1, §2
# T-47D = assay: NCI-60 cytotoxicity, T-47D; conditions: T-47D (Breast), 72 h
# Protocol: as §1, §2
# U251 = assay: NCI-60 cytotoxicity, U251; conditions: U251 (CNS), 72 h
# Protocol: as §1, §2
# SF-539 = assay: NCI-60 cytotoxicity, SF-539; conditions: SF-539 (CNS), 72 h
# Protocol: as §1, §2
# OVCAR-5 = assay: NCI-60 cytotoxicity, OVCAR-5; conditions: OVCAR-5 (Ovarian), 72 h
# Protocol: as §1, §2
# HT29 = assay: NCI-60 cytotoxicity, HT29; conditions: HT29 (Colon), 72 h
# Protocol: as §1, §2
# HS 578T = assay: NCI-60 cytotoxicity, HS 578T; conditions: HS 578T (Breast), 72 h
# Protocol: as §1, §2
# HCT-116 = assay: NCI-60 cytotoxicity, HCT-116; conditions: HCT-116 (Colon), 72 h
# Protocol: as §1, §2
# BT-S49 = assay: NCI-60 cytotoxicity, BT-S49; conditions: BT-S49 (Breast), 72 h
# Protocol: as §1, §2
# HOP-62 = assay: NCI-60 cytotoxicity, HOP-62; conditions: HOP-62 (Lung), 72 h
# Protocol: as §1, §2
# SKOV3 = assay: NCI-60 cytotoxicity, SKOV3; conditions: SKOV3 (Ovarian), 72 h
# Protocol: as §1, §2
# OVCAR-3 = assay: NCI-60 cytotoxicity, OVCAR-3; conditions: OVCAR-3 (Ovarian), 72 h
# Protocol: as §1, §2
# SF-268 = assay: NCI-60 cytotoxicity, SF-268; conditions: SF-268 (CNS), 72 h
# Protocol: as §1, §2
# A549 = assay: NCI-60 cytotoxicity, A549; conditions: A549 (Lung), 72 h
# Protocol: as §1, §2
# K-562 = assay: NCI-60 cytotoxicity, K-562; conditions: K-562 (CML), 72 h
# Protocol: as §1, §2
# CCRF-CEM = assay: NCI-60 cytotoxicity, CCRF-CEM; conditions: CCRF-CEM (Leukemia), 72 h
# Protocol: as §1, §2
# NCI-H552 = assay: NCI-60 cytotoxicity, NCI-H552; conditions: NCI-H552 (Lung), 72 h
# Protocol: as §1, §2
# HOP-92 = assay: NCI-60 cytotoxicity, HOP-92; conditions: HOP-92 (Lung), 72 h
# Protocol: as §1, §2
# EKVX = assay: NCI-60 cytotoxicity, EKVX; conditions: EKVX (Lung), 72 h
# Protocol: as §1, §2
# IGR-OV1 = assay: NCI-60 cytotoxicity, IGR-OV1; conditions: IGR-OV1 (Ovarian), 72 h
# Protocol: as §1, §2
# MDA-MB-468 = assay: NCI-60 cytotoxicity, MDA-MB-468; conditions: MDA-MB-468 (Breast), 72 h
# Protocol: as §1, §2
compound,measurement,setting,value
Cc1ccc([N+](=O)[O-])cc1S(=O)(=O)N(C)/N=C/c1cnc2ccc(Br)cn12 [Compound 1],IC50,SK-MEL-5; Homo sapiens,> 10 µM
same,IC50,CAKI-1; Homo sapiens,0.35 µM
same,IC50,A498; Homo sapiens,0.027 µM
same,IC50,NCI-H23; Homo sapiens,> 10 µM
same,IC50,MDA-MB-231; Homo sapiens,0.466 µM
same,IC50,SNB-19; Homo sapiens,0.385 µM
same,IC50,LOX IMVI; Homo sapiens,0.073 µM
same,IC50,SNB-75; Homo sapiens,0.435 µM
same,IC50,KM12; Homo sapiens,0.006 µM
same,IC50,Colo 205; Homo sapiens,2.18 µM
same,IC50,786-0; Homo sapiens,0.008 µM
same,IC50,"UO31; Homo sapiens, UO-31",0.115 µM
same,IC50,SW-620; Homo sapiens,0.074 µM
same,IC50,"T-47D; Homo sapiens, T47D",> 10 µM
same,IC50,"U251; Homo sapiens, U-251",0.253 µM
same,IC50,SF-539; Homo sapiens,0.177 µM
same,IC50,OVCAR-5; Homo sapiens,0.04 µM
same,IC50,"HT29; Homo sapiens, HT-29",0.087 µM
same,IC50,HS 578T; Homo sapiens,0.586 µM
same,IC50,HCT-116; Homo sapiens,0.001 µM
same,IC50,BT-S49; Homo sapiens,< 0.001 µM
same,IC50,HOP-62; Homo sapiens,0.008 µM
same,IC50,"SKOV3; Homo sapiens, SK-OV-3",0.291 µM
same,IC50,OVCAR-3; Homo sapiens,0.071 µM
same,IC50,SF-268; Homo sapiens,2.23 µM
same,IC50,A549; Homo sapiens,2.66 µM
same,IC50,"K-562; Homo sapiens, K562",0.416 µM
same,IC50,CCRF-CEM; Homo sapiens,3.72 µM
same,IC50,NCI-H552; Homo sapiens,> 10 µM
same,IC50,HOP-92; Homo sapiens,0.094 µM
same,IC50,EKVX; Homo sapiens,1.22 µM
same,IC50,"IGR-OV1; Homo sapiens, IGROV-1",0.251 µM
same,IC50,MDA-MB-468; Homo sapiens,0.103 µM
O=C1NCCc2[nH]c(-c3ccncc3)cc21 [Compound A11],IC50,SK-MEL-5,> 10 µM
same,IC50,CAKI-1,> 10 µM
same,IC50,A498,> 10 µM
same,IC50,NCI-H23,> 10 µM
same,IC50,MDA-MB-231,> 10 µM
same,IC50,SNB-19,> 10 µM
same,IC50,LOX IMVI,3.58 µM
same,IC50,SNB-75,6.14 µM
same,IC50,KM12,2.28 µM
same,IC50,Colo 205,> 10 µM
same,IC50,786-0,9.3 µM
same,IC50,UO31,4.03 µM
same,IC50,SW-620,3.93 µM
same,IC50,T-47D,> 10 µM
same,IC50,U251,4.57 µM
same,IC50,SF-539,3.68 µM
same,IC50,OVCAR-5,5.31 µM
same,IC50,HT29,5.04 µM
same,IC50,HS 578T,> 10 µM
same,IC50,HCT-116,1.26 µM
same,IC50,BT-S49,0.705 µM
same,IC50,HOP-62,9.94 µM
same,IC50,SKOV3,> 10 µM
same,IC50,OVCAR-3,2.52 µM
same,IC50,SF-268,> 10 µM
same,IC50,A549,> 10 µM
same,IC50,K-562,> 10 µM
same,IC50,CCRF-CEM,2.5 µM
same,IC50,NCI-H552,> 10 µM
same,IC50,HOP-92,6.4 µM
same,IC50,EKVX,> 10 µM
same,IC50,IGR-OV1,> 10 µM
same,IC50,MDA-MB-468,1.77 µM
O=C1NC(=NCc2cccs2)S/C1=C\c1ccc2ncccc2c1 [Compound A10],IC50,SK-MEL-5,> 10 µM
same,IC50,CAKI-1,> 10 µM
same,IC50,A498,> 10 µM
same,IC50,NCI-H23,> 10 µM
same,IC50,MDA-MB-231,> 10 µM
same,IC50,SNB-19,> 10 µM
same,IC50,LOX IMVI,4.4 µM
same,IC50,SNB-75,> 10 µM
same,IC50,KM12,> 10 µM
same,IC50,Colo 205,> 10 µM
same,IC50,786-0,7.77 µM
same,IC50,UO31,> 10 µM
same,IC50,SW-620,> 10 µM
same,IC50,T-47D,6.19 µM
same,IC50,U251,1.92 µM
same,IC50,SF-539,2.55 µM
same,IC50,OVCAR-5,> 10 µM
same,IC50,HT29,> 10 µM
same,IC50,HS 578T,5.83 µM
same,IC50,HCT-116,3.2 µM
same,IC50,BT-S49,4.78 µM
same,IC50,HOP-62,> 10 µM
same,IC50,SKOV3,> 10 µM
same,IC50,OVCAR-3,> 10 µM
same,IC50,SF-268,> 10 µM
same,IC50,A549,> 10 µM
same,IC50,K-562,> 10 µM
same,IC50,CCRF-CEM,2.5 µM
same,IC50,NCI-H552,> 10 µM
same,IC50,HOP-92,6.04 µM
same,IC50,EKVX,> 10 µM
same,IC50,IGR-OV1,> 10 µM
same,IC50,MDA-MB-468,6.97 µM
